Reference: ChEMBL document CHEMBL1123894, “Structure-activity relationships of cyclic opioid peptide analogues containing a phenylalanine residue in the 3-position” (J Med Chem, 1987)
Bridge positions count the residues as written; N and C are the ends. Square brackets hold non-standard residues; d marks the D form. Peptide text beside a SMILES is read from it. Orn = NCCC[C@H](N)C(=O)O

Columns and labels:
[1] = biological target: Delta-type opioid receptor (Mus musculus, UniProt P32300); assay: Inhibitory activity towards electrically induced contractions in mouse vas deferens expressing delta opioid receptor; type: functional, tissue-based
[2] = biological target: Delta-type opioid receptor (Rattus norvegicus, UniProt P33533); assay: Inhibition of [3H]DSLET binding to rat brain membrane Opioid receptor delta 1
Mu-type opioid receptor [3] = biological target: T1, Mu-type opioid receptor (Rattus norvegicus, UniProt P33535); assay: Binding affinity towards Opioid receptor mu 1 in rat brain membrane using [3H]DAGO as radioligand; type: cell membranes
Mu-type opioid receptor [4] = biological target: T2, Mu-type opioid receptor (Cavia porcellus, UniProt P97266); assay: Inhibitory activity towards electrically induced contractions in guinea pig ileum expressing Opioid receptor mu 1; type: tissue-based
Mu-type opioid receptor [5] = biological target: T1, Mu-type opioid receptor; assay: Binding affinity towards mu Opioid receptor in rat brain membrane using [3H]DAGO as radioligand; type: cell membranes
Mu-type opioid receptor [6] = biological target: T2, Mu-type opioid receptor; assay: Inhibitory activity towards Opioid receptor mu 1 using guinea pig ileum (GPI) assay was determined for the compound; type: tissue-based
Mu-type opioid receptor [7] = biological target: T2, Mu-type opioid receptor; assay: Inhibitory activity towards electrically induced contractions in guinea pig ileum expressing mu opioid receptor; type: tissue-based

Delta-type opioid receptor (Mus musculus, UniProt P32300), sequence (P32300 whole entry): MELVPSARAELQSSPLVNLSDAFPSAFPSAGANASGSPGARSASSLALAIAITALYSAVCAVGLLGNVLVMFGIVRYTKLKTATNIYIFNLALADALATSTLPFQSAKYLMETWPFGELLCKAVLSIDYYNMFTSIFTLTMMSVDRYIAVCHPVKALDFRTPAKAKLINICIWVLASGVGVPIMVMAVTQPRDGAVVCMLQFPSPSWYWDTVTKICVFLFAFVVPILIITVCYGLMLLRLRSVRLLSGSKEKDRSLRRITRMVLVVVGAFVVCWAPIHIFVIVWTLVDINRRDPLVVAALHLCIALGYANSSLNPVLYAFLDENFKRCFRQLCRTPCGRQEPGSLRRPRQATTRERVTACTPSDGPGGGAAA
T2 sequence (P97266 whole entry): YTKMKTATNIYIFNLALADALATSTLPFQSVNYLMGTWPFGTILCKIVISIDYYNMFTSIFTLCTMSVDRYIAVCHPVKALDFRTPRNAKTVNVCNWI
T1 sequence (P33535 whole entry): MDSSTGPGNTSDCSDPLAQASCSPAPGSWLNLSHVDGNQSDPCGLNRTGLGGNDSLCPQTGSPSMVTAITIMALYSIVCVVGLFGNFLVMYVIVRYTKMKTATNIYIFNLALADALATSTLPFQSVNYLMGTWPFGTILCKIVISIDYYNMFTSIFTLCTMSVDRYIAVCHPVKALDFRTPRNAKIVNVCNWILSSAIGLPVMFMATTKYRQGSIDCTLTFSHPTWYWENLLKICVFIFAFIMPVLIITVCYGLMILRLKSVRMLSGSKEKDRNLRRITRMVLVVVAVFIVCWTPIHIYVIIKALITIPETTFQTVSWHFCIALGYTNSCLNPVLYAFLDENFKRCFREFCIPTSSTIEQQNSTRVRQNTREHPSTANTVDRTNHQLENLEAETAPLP
Delta-type opioid receptor (Rattus norvegicus, UniProt P33533), sequence (P33533 whole entry): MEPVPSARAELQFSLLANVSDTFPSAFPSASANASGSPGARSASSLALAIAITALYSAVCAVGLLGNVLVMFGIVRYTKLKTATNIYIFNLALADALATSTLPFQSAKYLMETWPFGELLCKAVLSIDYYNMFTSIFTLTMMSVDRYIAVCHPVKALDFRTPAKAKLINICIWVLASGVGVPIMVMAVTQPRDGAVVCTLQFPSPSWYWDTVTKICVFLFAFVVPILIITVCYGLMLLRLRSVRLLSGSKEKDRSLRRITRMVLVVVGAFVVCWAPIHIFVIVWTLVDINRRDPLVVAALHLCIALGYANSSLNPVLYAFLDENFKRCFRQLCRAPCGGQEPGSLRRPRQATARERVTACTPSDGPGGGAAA

Compound	IC50 [1] [µM]	Ki [2] [µM]	Ki (Mu-type opioid receptor [3]) [µM]	IC50 (Mu-type opioid receptor [4]) [µM]	Ki (Mu-type opioid receptor [5]) [µM]	IC50 (Mu-type opioid receptor [6]) [µM]	IC50 (Mu-type opioid receptor [7]) [µM]
NC(=O)[C@@H]1CCCNC(=O)C[C@@H](NC(=O)[C@@H](N)Cc2ccc(O)cc2)C(=O)N[C@@H](Cc2ccccc2)C(=O)N1 (H-Y[dD]F[Orn]-NH2; lactam 2-4)	8.57	1.32	0.00955	0.522			
CN1C(=O)[C@H](NC(=O)[C@@H](N)Cc2ccc(O)cc2)CCCNC(=O)C[C@@H](C(N)=O)NC(=O)[C@@H]1Cc1ccccc1	1.38	28.1	3.57	6.46			
NC(=O)[C@@H]1CC(=O)NCCC[C@@H](NC(=O)[C@@H](N)Cc2ccc(O)cc2)C(=O)N[C@H](Cc2ccccc2)C(=O)N1	> 8.64	> 380	3.04	> 21			
NC(=O)[C@@H]1CC(=O)NCCC[C@H](NC(=O)[C@@H](N)Cc2ccc(O)cc2)C(=O)N[C@@H](Cc2ccccc2)C(=O)N1	> 100	> 60		16.8	4.83		
NC(=O)[C@@H]1CSSC[C@@H](NC(=O)[C@@H](N)Cc2ccc(O)cc2)C(=O)N[C@@H](Cc2ccccc2)C(=O)N1		0.373	0.011			0.0647	
NC(=O)[C@@H]1CC(=O)NCCC[C@@H](NC(=O)[C@@H](N)Cc2ccc(O)cc2)C(=O)N[C@@H](Cc2ccccc2)C(=O)N1	3.88	2.22	0.0104				0.0362
NC(=O)[C@@H]1CC(=O)NCCC[C@@H](NC(=O)[C@@H](N)Cc2ccc(O)cc2)C(=O)N[C@@H](C2CCCCC2)C(=O)N1	1.66	3.57		18.4	0.445		
NC(=O)[C@@H]1CC(=O)NCCC[C@@H](NC(=O)[C@@H](N)Cc2ccc(O)cc2)C(=O)N[C@@H](Cc2ccc([N+](=O)[O-])cc2)C(=O)N1	> 100	5.06	0.273	2.34			
NC(=O)[C@@H]1CCNC(=O)C[C@@H](NC(=O)[C@@H](N)Cc2ccc(O)cc2)C(=O)N[C@@H](Cc2ccccc2)C(=O)N1	2.03	4.17	0.0248	0.279			
NC(=O)[C@H]1CC(=O)NCCC[C@@H](NC(=O)[C@@H](N)Cc2ccc(O)cc2)C(=O)N[C@@H](Cc2ccccc2)C(=O)N1	4.81	0.422	0.0217	0.632			
NC(=O)[C@@H]1CC(=O)NCCC[C@@H](NC(=O)[C@@H](N)Cc2ccc(O)cc2)C(=O)N[C@@H](CCc2ccccc2)C(=O)N1	1.37	0.849	0.0119	0.111			
